Assay results published in patent publication US20260206764A1, “AN HERBICIDAL COMBINATION, COMPOSITION AND METHOD OF CONTROLLING WEEDS USING THE SAME” (priority 2023, published 2026).

What was measured:
[1] = test system: Eleusine indica; assay: Greenhouse post-emergence herbicidal efficacy, % weed control; format: in vivo; conditions: for Control %: Table 6, L-glufosinate ammonium 150, quizalofop-p-tefuryl 25 g/ha
Text: (§1) This effectiveness of all treatments can be evaluated according to Colby's equation. In the Colby's equation given below, E is the expected efficacy of combination of L-glufosinate, salts, esters, or combinations thereof, and an herbicide of the phenoxypropionic herbicide class, • X is the observed efficacy of L-glufosinate, salts, esters, or combinations thereof and • Y is the observed efficacy of the herbicide of the phenoxypropionic herbicide class.
(§2) Observed efficacy values i.e. X and Y are % weed control for L-glufosinate, salts, esters, or combinations thereof and an herbicide of the phenoxypropionic herbicide class. If observed efficacy of combination of L-glufosinate, salts, esters, or combinations thereof and the herbicide of the phenoxypropionic herbicide class is greater than its expected efficacy, then combination is determined to be synergistic. If observed efficacy is equal to or less than expected efficacy, then combination is determined to be non-synergistic.
(§3) Methodology: Greenhouse trials were carried out to evaluate the efficacy of the combination of L-glufosinate ammonium and phenoxypropionic herbicides—haloxyfop, quizalofop-ethyl, quizalofop-P-tefuryl—on weeds Eleusine indica, Brachiaria decumbens, Spermacoce latifolia and Glycine max.
(§4) The soil used was sandy clay loam-Sand: 68.0%; Silt: 8.0%; Clay: 24.0%.
(§5) All treatments were in 4 replications per treatment with a spray volume of […].
(§6) The expected efficacy of a combination of L-glufosinate and the other herbicides was calculated using the well-established Colby method. Any difference between the observed and “expected” efficacy could be attributed to synergy between the two compounds. (Colby, S. R., Weeds, 1967 (15), p. 20-22).
Experiment was conducted to assess the efficacy herbicidal combination comprising L-glufosinate ammonium (glufosinate-p-ammonium) and haloxyfop to control the weed, Eleusine indica.
The percentage efficacy was calculated after 7 days of application (DAA). The target weed was Eleusine indica, and the concentration of the herbicide and the results are recorded in the table 4 below:
Experiment was conducted to assess the efficacy herbicidal combination comprising L-glufosinate ammonium (glufosinate-p-ammonium) and quizalofop-ethyl to control the weed, Eleusine indica.
The percentage efficacy was calculated after 21 days of application (DAA). The target weed was Eleusine indica, and the concentration of the herbicide and the results are recorded in the table 5 below:
Experiment was conducted to assess the efficacy herbicidal combination comprising L-glufosinate ammonium (glufosinate-p-ammonium) and quizalofop-P-tefuryl to control the weed, Eleusine indica.
The percentage efficacy was calculated after 21, 28, 35 days of application (DAA). The target weed was Eleusine indica, and the concentration of the herbicide and the results are recorded in the table 6 below: […]

[2] = test system: Glycine max; assay: as above; format: in vivo; conditions: for % control: Table 8, L-glufosinate ammonium 150, haloxyfop 50 g ai/ha
Text: as §1, §2, §3, §4, §5, §6
Experiment was conducted to assess the efficacy herbicidal combination comprising L-glufosinate ammonium (glufosinate-p-ammonium) and haloxyfop to control the weed, Glycine max.
The percentage efficacy was calculated after 3, 7, 14, 21, 28, 35 days of application (DAA). The target weed was Glycine max, and the concentration of the herbicide and the results are recorded in the table 8 below:
Experiments were conducted to assess the efficacy of herbicidal combination comprising L-glufosinate ammonium (glufosinate-p-ammonium) and quizalofop-ethyl to control the weedy Glycine max.
The percentage efficacy was calculated after 3, 28 and 35 days of applications (DAA). The target weed was Glycine max, and the concentration of the herbicide and the results are recorded in the table 9 below:
Experiments were conducted to assess the efficacy of herbicidal combination comprising L-glufosinate ammonium (glufosinate-p-ammonium) and quizalofop-p-tefuryl to control the weedy Glycine max.
The percentage efficacy was calculated after 3, 28 and 35 days of applications (DAA). The target weed was Glycine max, and the concentration of the herbicide and the results are recorded in the table 10 below.

[3] = test system: Spermacoce latifolia; assay: as above; format: in vivo; conditions: Table 7, L-glufosinate ammonium 150, haloxyfop 50 g/ha
Text: as §1, §2, §3, §4, §5, §6
Experiment was conducted to assess the efficacy herbicidal combination comprising L-glufosinate ammonium (glufosinate-p-ammonium) and haloxyfop to control the weed, Spermacoce latifolia.
The percentage efficacy was calculated after 7, 14, 21, 28, 35 days of application (DAA). The target weed was Spermacoce latifolia, and the concentration of the herbicide and the results are recorded in the table 7 below: […]

[4] = test system: Brachiaria decumbens; assay: as above; format: in vivo
Text: as §1, §2, §3, §4, §5, §6
Experiment was conducted to assess the efficacy herbicidal combination comprising L-glufosinate ammonium (glufosinate-p-ammonium) and haloxyfop to control the weed, Brachiaria decumbens.
The percentage efficacy was calculated after 7, 14 days of application (DAA). The target weed was Brachiaria decumbens, and the concentration of the herbicide and the results are recorded in the table 1 below:
Experiment was conducted to assess the efficacy herbicidal combination comprising L-glufosinate ammonium (glufosinate-p-ammonium) and quizalofop-ethyl to control the weed, Brachiaria decumbens.
The percentage efficacy was calculated after 28 and 35 days of application (DAA). The target weed was Brachiaria decumbens, and the concentration of the herbicide and the results are recorded in the table 2 below:
Experiment was conducted to assess the efficacy herbicidal combination comprising L-glufosinate ammonium (glufosinate-p-ammonium) and quizalofop-P-tefuryl to control the weed, Brachiaria decumbens.
The percentage efficacy was calculated after 14, 21, 28, 35 days of application (DAA). The target weed was Brachiaria decumbens, and the concentration of the herbicide and the results are recorded in the table 3 below: […]

[5] = test system: Viola arvensis, Bromus spp., Lolium spp., Agropyron repens and Urtica urens; conditions: reported by Hoechst et al., 1991; cited from earlier work
[6] = Table 4, 7 DAA, L-glufosinate ammonium 150, haloxyfop 50 g ai/ha
[7] = Table 1, 7 DAA, L-glufosinate ammonium 150, haloxyfop 50 g a.i./ha
[8] = Table 1, 14 DAA, L-glufosinate ammonium 150, haloxyfop 50 g a.i./ha
[9] = Table 5, 21 DAA, L-glufosinate ammonium 150, quizalofop-ethyl 25 g ai/ha
[10] = Table 9, 3 DAA, L-glufosinate ammonium 150, quizalofop-ethyl 25 g/ha
[11] = Table 9, 28 DAA, L-glufosinate ammonium 150, quizalofop-ethyl 25 g/ha
[12] = Table 9, 35 DAA, L-glufosinate ammonium 150, quizalofop-ethyl 25 g/ha
[13] = Table 2, 28 DAA, L-glufosinate ammonium 150, quizalofop-ethyl 25 g a.i./ha
[14] = Table 2, 35 DAA, L-glufosinate ammonium 150, quizalofop-ethyl 25 g a.i./ha
[15] = Table 10, 3 DAA, L-glufosinate ammonium 150, quizalofop-p-tefuryl 25 g/h
[16] = Table 10, 28 DAA, L-glufosinate ammonium 150, quizalofop-p-tefuryl 25 g/h
[17] = Table 10, 35 DAA, L-glufosinate ammonium 150, quizalofop-p-tefuryl 25 g/h
[18] = Table 3, 14 DAA, L-glufosinate ammonium 150, quizalofop-p-tefuryl 25 g/ha
[19] = Table 3, 21 DAA, L-glufosinate ammonium 150, quizalofop-p-tefuryl 25 g/ha
[20] = Table 3, 28 DAA, L-glufosinate ammonium 150, quizalofop-p-tefuryl 25 g/ha
[21] = Table 3, 35 DAA, L-glufosinate ammonium 150, quizalofop-p-tefuryl 25 g/ha

Row | Compound | % control [1, 6] | % control ([2]; 3 DAA) | % control ([2]; 7 DAA) | % control ([2]; 14 DAA) | % control ([2]; 21 DAA) | % control ([2]; 28 DAA) | % control ([2]; 35 DAA) | Control % ([3]; 7 DAA) | Control % ([3]; 14 DAA) | Control % ([3]; 21 DAA) | Control % ([3]; 28 DAA) | Control % ([3]; 35 DAA) | Control % [4, 7] | Control % [4, 8] | % control [1, 9] | Control % [2, 10] | Control % [2, 11] | Control % [2, 12] | Control % [4, 13] | Control % [4, 14] | other results
1 | CC(Oc1ccc(Oc2ncc(C(F)(F)F)cc2Cl)cc1)C(=O)O (stereo not shown) [Haloxyfop, haloxyfop] | 25% | 5% | 13.3% | 15% | 12.3% | 12.3% | 12.3% | 8% | 8.7% | 10% | 31% | 9.3% | 26.7% | 75.3% | – | – | – | – | – | – | –
2 | CP(=O)(O)CCC(N)C(=O)O (racemic) [glufosinate, DL-homoalanin-4-yl(methyl)phosphinic acid] | – | – | – | – | – | – | – | – | – | – | – | – | – | – | – | – | – | – | – | – | control of weed species [5]: either not combated, or only weakly combated
3 | CCOC(=O)C(C)Oc1ccc(Oc2cnc3cc(Cl)ccc3n2)cc1 (stereo not shown) [quizalofop-ethyl] | – | – | – | – | – | – | – | – | – | – | – | – | – | – | 95% | 0% | 0% | 0% | 35% | 30% | –
4 | C[C@@H](Oc1ccc(Oc2cnc3cc(Cl)ccc3n2)cc1)C(=O)OCC1CCCO1 (stereo partly shown) [quizalofop-p-tefuryl] | – | – | – | – | – | – | – | – | – | – | – | – | – | – | – | – | – | – | – | – | Control % ([1]; 21 DAA): 10%; Control % ([1]; 28 DAA): 5%; Control % ([1]; 35 DAA): 5%; Control % [2, 15]: 0%; Control % [2, 16]: 0%; Control % [2, 17]: 0%; Control % [4, 18]: 20%; Control % [4, 19]: 10%; Control % [4, 20]: 5%; Control % [4, 21]: 5%
5 | CP(=O)(O)CC[C@H](N)C(=O)O.N [L-glufosinate ammonium, ammonium (2S)-2-amino-4-(methylphosphinato)butyric acid] | 50.7% | 15% | 53.3% | 71% | 66.7% | 56.7% | 41.7% | 31.7% | 81.7% | 83.3% | 83.3% | 83.3% | 50% | 79.3% | 35% | 50% | 40% | 40% | 60% | 55% | Control % ([1]; 21 DAA): 25%; Control % ([1]; 28 DAA): 20%; Control % ([1]; 35 DAA): 18%; Control % [2, 15]: 50%; Control % [2, 16]: 60%; Control % [2, 17]: 55%; Control % [4, 18]: 75%; Control % [4, 19]: 70%; Control % [4, 20]: 60%; Control % [4, 21]: 55%
